According to publication PMC5905120, “An innovative immunotherapeutic strategy for ovarian cancer: CLEC10A and glycomimetic peptides” (Journal for Immunotherapy of Cancer, 2018):
Bridges are numbered along the chain shown (N, C = ends). Roman numbers before positions name the chains, in order. Where no end group is shown, it is not given here.

How the values were obtained:
human ASGPR-1 = biological target: T1, human ASGPR-1 (Homo sapiens, UniProt P07306); experiment: Solid-phase binding to recombinant human ASGPR-1; conditions: Fig. 2a, representative of 3 independent experiments
T1 construct: purchased R&D Systems
T1 sequence (P07306 62-291 limits assumed): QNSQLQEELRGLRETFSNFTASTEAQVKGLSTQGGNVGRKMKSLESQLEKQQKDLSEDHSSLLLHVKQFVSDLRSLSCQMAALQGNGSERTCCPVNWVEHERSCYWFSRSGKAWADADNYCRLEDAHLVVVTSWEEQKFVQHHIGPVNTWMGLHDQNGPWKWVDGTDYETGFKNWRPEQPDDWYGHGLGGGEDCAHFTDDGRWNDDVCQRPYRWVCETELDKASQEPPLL
Procedure: Solid-phase binding assays were performed with streptavidin-, protein A/G-, or Nickel-coated microtiter plates (Pierce). His-tagged or Fc-fusion recombinant receptors (R&D Systems, Minneapolis, MN) were reconstituted in PBS. Sufficient receptors were added to wells to saturate the coating. His-tagged receptors were added to each well at a 5-fold excess over the stated capacity of the Ni coating to minimize non-specific binding of the peptide. Wells were washed three times with binding buffer (25 mM Tris HCl, pH 7.4, 150 mM NaCl, 0.05% Tween-20) to remove unbound receptor and 50 μL of 2 μM biotinylated peptide in binding buffer were added and allowed to incubate for 1 h. The wells were washed four times with binding buffer and then incubated with 50 μL of 1 μg/mL streptavidin conjugated with peroxidase (Sigma-Aldrich) for 1 h. The wells were washed five times with binding buffer and 50 μL of peroxidase substrate (1-Step™ Ultra TMB, Pierce) were added. After several minutes to allow color development, the reaction was stopped with 50 μL 1 M H3PO4 and absorbance was measured at 450 nm. Bound streptavidin was quantitated by the specific activity of peroxidase (absorbance/ng protein conjugate/min) under the conditions of the assay.
Solid-phase binding assays were performed with recombinant human receptors. Three variations of the binding assay were used in this study, all of which allowed the arms of the tetravalent peptide to have full flexibility. (i) Biotinylated peptide was bound in microtiter wells coated with streptavidin and incubated with recombinant human receptors. After extensive washing, the bound receptor was measured by peroxidase conjugated to a receptor-specific antibody. (ii) The extracellular domains of receptors, which were fused with the Fc domain of immunoglobulin IgG, were bound in wells coated with protein A/G. Biotinylated peptide was incubated with the receptors and, after extensive washing, bound peptide was measured with streptavidin conjugated with peroxidase. Or (iii), recombinant receptors with a poly-His tag were bound to Nickel-coated wells and incubated with biotinylated peptide. svL4 and sv6D contain His residues (see Table 1) and can bind to the Ni coating, which was minimized by adding sufficient poly-His-tagged receptor to saturate the Ni coating.

[1] = tested on: peritoneal cells of C57BL/6 mice; experiment: Peritoneal immune cell populations by flow cytometry, C57BL/6 mice; type: in vivo, mouse (C57BL/6)
Procedure: Healthy C57BL/6 male mice, 10 weeks old, were injected subcutaneously with peptides on alternate days. Peritoneal cells were isolated from mice 24 h after dosing by injecting ice cold PBS (containing 3% FBS) into the peritoneal cavity, gently massaging the abdomen, and then collecting the fluid, which was transferred into K2EDTA-treated tubes for evaluation of specific biomarkers. Cells from three mice in each group were pooled, counted and divided among FACS tubes (1 × 10^6 cells per tube). Cells were washed once in PBS containing 3% FBS, then stained with 0.25 to 1 μg of fluorescently conjugated antibody per 10^6 cells in 100 μL of buffer as recommended by the manufacturer (Table 2).
Cells were incubated with the antibodies for 30 min at 4 °C in the dark. Following staining, the cells were washed two times with PBS/3% FBS and immediately analyzed with a MACSQuant flow cytometer (Miltenyi Biotech, Inc., San Diego, CA). Compensation was performed using single stain tubes for each color present in the analysis as well as an unstained control sample. Collection of flow cytometric data and analysis with FlowJo software, version 10.0.6 (FlowJo, LLC, Ashland, OR) were performed by Biomodels LLC (Watertown, MA).
To examine whether increases occurred in mature immune cells, peritoneal cells from Balb/c and C57BL/6 mice were analyzed by flow cytometry after cells were stained with the markers listed in Table 2. […] To explore this observation more extensively, svL4 or sv6D was injected into C57BL/6 mice on day 0, 2 or 4. Peritoneal cells were examined by flow cytometry 24 h after each injection. Shown in Fig. 5 are results expressed as cell counts for F4/80 CD11b CD86 (mature, active macrophages); CD11c (DCs); CD11c CD 86 (activated DCs); CD4 CD69 (activated T cells); CD8 CD69 (activated cytotoxic T cells); NK1.1 CD3^+ CD69 (activated NKT cells); NK1.1 CD3^− CD69 (activated NK cells); CD19 (B cells); and CD19 CD73 CD80 CD273 (memory B cells). The numbers of these mature, activated cells continued to increase with each injection.
Fig. 5 Expansion of peritoneal cells in C57BL/6 mice. Mice were injected subcutaneously at a dose of 1 nmole/g body weight of svL4, sv6D or svC1. Cells in each population recovered in a peritoneal lavage are expressed as cell counts (in thousands). Cells from three mice in each treatment group were pooled for analysis. The number of cells in each population was normalized to the average recovery of total cells from all groups. For each cell type, the left-hand, middle and right-hand set of bars represent samples from mice treated with svL4, sv6D or svC1, respectively. Mice were injected on days 0, 2 and 4, and cells were collected 24 h after each injection. Day 1, open bar; day 3, grey bar; day 5, black bar. Populations that express activation markers are indicated by an asterisk

[2] = Antigenicity assay in mouse sera; type: in vivo; conditions: 1 nmole/g s.c., alternate days for 3 months; sera of 8 treated mice, Fig. 8
Procedure: The sequence of one arm of svL4 or sv6D was conjugated to keyhole limpet hemocyanin (KLH) and injected into rabbits at two week intervals (total of 3 injections) (New England Peptide, Inc., Gardner, MA). Two weeks after the final injection, sera were prepared. Mice were injected with a peptide every other day over a period of 3 months (total ~ 45 injections), blood was then collected by cardiac puncture and sera were prepared. Rabbit serum was diluted 1:10, whereas mouse serum was diluted 1:1 or 1:5 with PBS containing 0.05% Tween-20 (PBST). Sera were incubated in microtiter wells coated with protein A/G (Pierce) for 90 min. The wells were washed three times with PBST, and then incubated with 50 μL of 1 μM biotinylated svL4 or sv6D for 1 h. The wells were washed four times with PBST, incubated 1 h with 1 μg/mL streptavidin-peroxidase conjugate, and washed four times with PBST. Peroxidase activity was assayed as above under Binding Assays.
Fig. 8 Test for antigenicity of svL4 and sv6D. Anti-sera were generated in rabbits against KLH-conjugates of the sequences of svL4 or sv6D and diluted 1:10. Mouse sera were collected after alternate-day injections of svL4 over 3 months, diluted 1:1 with PBS and added to protein-A/G-coated wells. Biotinylated svL4 or sv6D was added to wells and bound peptide was detected with a streptavidin-peroxidase conjugate. […]

## I: VQATQSNQHTPRGGGSKK-NH2 / II: VQATQSNQHTPRGGGSK / III: VQATQSNQHTPRGGGS / IV: VQATQSNQHTPRGGGS (amide I:17-IV:C, I:18-II:C, II:17-III:C) [svL4]
Human ASGPR-1
  binding to ASGPR-1: also to ASGPR-1
[1]; 0.05 nmole/g svL4
  decrease of CD90.2^+ cells as small-cell population increased: more than 50%
[1]; 1 nmole/g s.c. on days 0, 2, 4, Fig. 5
  response of CD19^+ B cells vs. sv6D: responded more strongly to svL4
[1]; 1 nmole/g s.c., single vs. second injection, 24 h
  increase in mature immune cells: a significant increase occurred only after the second injection
[1]; 0.1 or 0.5 nmole/g svL4
  Lin/CD90.2 status of small cells: nearly all cells were Lin^Neg and CD90.2^Neg
[1]; within 24 h after an injection (data not shown)
  increase in mature immune cells: Essentially no increase
[1]; within 24 h after injection, healthy C57BL/6, Fig. S1a
  small cells (low FSc, low SSc): several-fold increase
[2]
  antibodies that bind the peptides in mouse sera: negative
